In patent publication US9051310B2, “Nicotinamide derivative or salt thereof” (FUJIFILM Corporation, priority 2011, dated 2015):

The molecules below were run against T1, glutathione S-transferase (GST)-linked full-length human Syk protein (Homo sapiens, UniProt P43405) (assay: Syk enzyme assay). Conditions: 0.83 nM Syk, time-resolved fluorescence; read-out: IC50 of Syk-inhibitory activity.
T1 construct: glutathione S-transferase (GST)-linked full-length human Syk protein; purchased Carna Biosciences; host or cells: Baculovirus expression system
Type: biochemical
How it was run: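 Phosphotyrosine on a biotin-peptide substrate (0.5 μM) was read by time-resolved fluorescence at 615 and 665 nm with Eu-anti-pTyr antibody and APC-streptavidin after 1 h EDTA stop.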
For `CC[C@@H](Nc1nc(Nc2ccc3[nH]nc(N(C)C)c3c2)c(C(N)=O)cc1F)[C@H](C)N` [Example 2-493, 6-(((2S,3R)-2-aminopentan-3-yl)amino)-2-((3-(dimethylamino)-1H-indazol-5-yl)amino)-5-fluoronicotinamide], the IC50 was < 10 nM.
With `C[C@H](N)[C@H](Nc1nc(Nc2ccc3[nH]nc(N(C)C)c3c2)c(C(N)=O)cc1F)C1CC1` [Example 2-494, 6-(((1R,2S)-2-amino-1-cyclopropylpropyl)amino)-2-((3-(dimethylamino)-1H-indazol-5-yl)amino)-5-fluoronicotinamide] the IC50 was < 10 nM.
For `CC[C@H](N)[C@@H](C)Nc1nc(Nc2ccc3[nH]nc(N(C)C)c3c2)c(C(N)=O)cc1F` [Example 2-495, 6-(((2R,3S)-3-aminopentan-2-yl)amino)-2-((3-(dimethylamino)-1H-indazol-5-yl)amino)-5-fluoronicotinamide], the IC50 was < 10 nM.
`CC[C@@H](Nc1nc(Nc2ccc3c(c2)c(NC)nn3C)c(C(N)=O)cc1F)[C@H](C)N` [Example 2-497, 6-(((2S,3R)-2-aminopentan-3-yl)amino)-5-fluoro-2-((1-methyl-3-(methylamino)-1H-indazol-5-yl)amino)nicotinamide] was tested, and the IC50 was 50 to 100 nM.
With `CNc1nn(C)c2ccc(Nc3nc(N[C@H](C4CC4)[C@H](C)N)c(F)cc3C(N)=O)cc12` [Example 2-498, 6-(((1R,2S)-2-amino-1-cyclopropylpropyl)amino)-5-fluoro-2-((1-methyl-3-(methylamino)-1H-indazol-5-yl)amino)nicotinamide] the IC50 was < 10 nM.
`CC[C@H](N)[C@@H](C)Nc1nc(Nc2ccc3c(c2)c(NC)nn3C)c(C(N)=O)cc1F` [Example 2-499, 6-(((2R,3S)-3-aminopentan-2-yl)amino)-5-fluoro-2-((1-methyl-3-(methylamino)-1H-indazol-5-yl)amino)nicotinamide] showed an IC50 of 10 to 50 nM.
With `COCCn1nc(N(C)C)c2cc(Nc3nc(N[C@@H]4CCCC[C@@H]4N)c(F)cc3C(N)=O)ccc21` [Example 2-500, 6-(((1R,2S)-2-aminocyclohexyl)amino)-2-((3-(dimethylamino)-1-(2-methoxyethyl)-1H-indazol-5-yl)amino)-5-fluoronicotinamide] the IC50 was 10 to 50 nM.
`COCCn1nc(N(C)C)c2cc(Nc3nc(N[C@@H]4CCOC[C@@H]4N)c(F)cc3C(N)=O)ccc21` [Example 2-501, 6-(((3R,4R)-3-aminotetrahydro-2H-pyran-4-yl)amino)-2-((3-(dimethylamino)-1-(2-methoxyethyl)-1H-indazol-5-yl)amino)-5-fluoronicotinamide] gave an IC50 of 10 to 50 nM.
Work on `CC[C@@H](Nc1nc(Nc2ccc3c(c2)c(N(C)C)nn3CCOC)c(C(N)=O)cc1F)[C@H](C)N` [Example 2-502, 6-(((2S,3R)-2-aminopentan-3-yl)amino)-2-((3-(dimethylamino)-1-(2-methoxyethyl)-1H-indazol-5-yl)amino)-5-fluoronicotinamide] yielded an IC50 of 10 to 50 nM.
Molecule `CCC[C@@H](Nc1nc(Nc2ccc3c(c2)c(N(C)C)nn3CCOC)c(C(N)=O)cc1F)[C@H](C)N` [Example 2-503, 6-(((2S,3R)-2-aminohexan-3-yl)amino)-2-((3-(dimethylamino)-1-(2-methoxyethyl)-1H-indazol-5-yl)amino)-5-fluoronicotinamide] has an IC50 of 10 to 50 nM.
`COCCn1nc(N(C)C)c2cc(Nc3nc(N[C@H](C4CC4)[C@H](C)N)c(F)cc3C(N)=O)ccc21` [Example 2-504] showed an IC50 of 10 to 50 nM.
Work on `COCCn1nc(N(C)C)c2cc(Nc3nc(N[C@H](CC(C)C)[C@H](C)N)c(F)cc3C(N)=O)ccc21` [Example 2-505, 6-(((2S,3R)-2-amino-5-methylhexan-3-yl)amino)-2-((3-(dimethylamino)-1-(2-methoxyethyl)-1H-indazol-5-yl)amino)-5-fluoronicotinamide] yielded an IC50 of 10 to 50 nM.
`COCCn1nc(N(C)C)c2cc(Nc3nc(N[C@H](C4CCC4)[C@H](C)N)c(F)cc3C(N)=O)ccc21` [Example 2-506, 6-(((1R,2S)-2-amino-1-cyclobutylpropyl)amino)-2-((3-(dimethylamino)-1-(2-methoxyethyl)-1H-indazol-5-yl)amino)-5-fluoronicotinamide] was tested, and the IC50 was 10 to 50 nM.
`CC[C@H](N)[C@@H](C)Nc1nc(Nc2ccc3c(c2)c(N(C)C)nn3CCOC)c(C(N)=O)cc1F` [Example 2-507, 6-(((2R,3S)-3-aminopentan-2-yl)amino)-2-((3-(dimethylamino)-1-(2-methoxyethyl)-1H-indazol-5-yl)amino)-5-fluoronicotinamide] gave an IC50 of 50 to 100 nM.
In the case of `CCn1ncc2c(Nc3nc(N[C@H](c4cccs4)[C@H](C)N)c(F)cc3C(N)=O)cccc21` [Example 2-509, 6-(((1S,2S)-2-amino-1-(thiophen-2-yl)propyl)amino)-2-((1-ethyl-1H-indazol-4-yl)amino)-5-fluoronicotinamide], the IC50 is reported as < 10 nM.
In the case of `C[C@H](N)[C@H](Nc1nc(Nc2ccc3c(c2)c(N(C)C)nn3C)c(C(N)=O)cc1F)c1cccs1` [Example 2-510, 6-(((1S,2S)-2-amino-1-(thiophen-2-yl)propyl)amino)-2-((3-(dimethylamino)-1-methyl-1H-indazol-5-yl)amino)-5-fluoronicotinamide], the IC50 is reported as < 10 nM.
Molecule `C[C@H](N)[C@H](Nc1nc(Nc2cnc(N3CCOCC3)c(F)c2)c(C(N)=O)cc1F)c1ccc(Cl)s1` [Example 2-511, 6-(((1S,2S)-2-amino-1-(5-chlorothiophen-2-yl)propyl)amino)-5-fluoro-2-((5-fluoro-6-morpholinopyridin-3-yl)amino)nicotinamide] has an IC50 of 10 to 50 nM.
For `CCn1ncc2c(Nc3nc(N[C@H](c4ccc(Cl)s4)[C@H](C)N)c(F)cc3C(N)=O)cccc21` [Example 2-512, 6-(((1S,2S)-2-amino-1-(5-chlorothiophen-2-yl)propyl)amino)-2-((1-ethyl-1H-indazol-4-yl)amino)-5-fluoronicotinamide], the IC50 was < 10 nM.
Molecule `C[C@H](N)[C@H](Nc1nc(Nc2cnc(N3CCOCC3)c(F)c2)c(C(N)=O)cc1F)c1ccccc1F` [Example 2-513, 6-(((1R,2S)-2-amino-1-(2-fluorophenyl)propyl)amino)-5-fluoro-2-((5-fluoro-6-morpholinopyridin-3-yl)amino)nicotinamide] has an IC50 of 10 to 50 nM.
In the case of `CCn1ncc2c(Nc3nc(N[C@H](c4ccccc4F)[C@H](C)N)c(F)cc3C(N)=O)cccc21` [Example 2-514, 6-(((1R,2S)-2-amino-1-(2-fluorophenyl)propyl)amino)-2-((1-ethyhl-1H-indazol-4-yl)amino)-5-fluoronicotinamide], the IC50 is reported as < 10 nM.
`COc1ncc(Nc2nc(N[C@@H]3CCCC[C@@H]3N)c(F)cc2C(N)=O)cc1C(C)=O` [Example 2-515, 2-((5-acetyl-6-methoxypyridin-3-yl)amino)-6-(((1R,2S)-2-aminocyclohexyl)amino)-5-fluoronicotinamide] showed an IC50 of 10 to 50 nM.
With `C[C@H](N)[C@H](Nc1nc(Nc2cncc(-n3cc(Cl)cn3)c2)c(C(N)=O)cc1F)C1CC1` [Example 2-520, 6-(((1R,2S)-2-amino-1-cyclopropylpropyl)amino)-2-((5-(4-chloro-1H-pyrazol-1-yl)pyridin-3-yl)amino)-5-fluoronicotinamide] the IC50 was < 10 nM.
With `Cc1cnn(-c2cncc(Nc3nc(N[C@H](C4CCC4)[C@H](C)N)c(F)cc3C(N)=O)c2)c1` [Example 2-523, 6-(((1R,2S)-2-amino-1-cyclobutylpropyl)amino)-5-fluoro-2-((5-(4-methyl-1H-pyrazol-1-yl)pyridin-3-yl)amino)nicotinamide] the IC50 was < 10 nM.
